According to PubChem BioAssay (NCI):
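A five-concentration, 48-hour dose response in 96-well plates underlies each endpoint, interpolated linearly between surrounding concentrations. Here, GI50 denotes the concentration required for 50% inhibition of growth. TGI: concentration producing complete growth inhibition.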

Experiments:
Experiment in all cases: NCI-60 cell line screen, 48 h
786-0 renal = test system: 786-0 renal
A498 renal = test system: A498 renal
A549 NSCLC = test system: A549 NSCLC
ACHN renal = test system: ACHN renal
BT-549 breast = test system: BT-549 breast
CAKI-1 renal = test system: CAKI-1 renal
CCRF-CEM leukemia = test system: CCRF-CEM leukemia
COLO 205 colon = test system: COLO 205 colon
DU-145 prostate = test system: DU-145 prostate
EKVX NSCLC = test system: EKVX NSCLC
HCC-2998 colon = test system: HCC-2998 colon
HCT-116 colon = test system: HCT-116 colon
HCT-15 colon = test system: HCT-15 colon
HL-60(TB) leukemia = test system: HL-60(TB) leukemia
HOP-62 NSCLC = test system: HOP-62 NSCLC
HOP-92 NSCLC = test system: HOP-92 NSCLC
HS 578T breast = test system: HS 578T breast
HT29 colon = test system: HT29 colon
IGROV1 ovarian = test system: IGROV1 ovarian
K-562 leukemia = test system: K-562 leukemia
KM12 colon = test system: KM12 colon
LOX IMVI melanoma = test system: LOX IMVI melanoma
M14 melanoma = test system: M14 melanoma
MALME-3M melanoma = test system: MALME-3M melanoma
MCF7 breast = test system: MCF7 breast
MDA-MB-231 breast = test system: MDA-MB-231 breast
MDA-MB-435 = test system: MDA-MB-435
MOLT-4 leukemia = test system: MOLT-4 leukemia
NCI-H226 lung = test system: NCI-H226 lung
NCI-H460 lung = test system: NCI-H460 lung
NCI-H522 lung = test system: NCI-H522 lung
NCI/ADR-RES ovarian = test system: NCI/ADR-RES ovarian
OVCAR-3 ovarian = test system: OVCAR-3 ovarian
OVCAR-4 ovarian = test system: OVCAR-4 ovarian
OVCAR-5 ovarian = test system: OVCAR-5 ovarian
OVCAR-8 ovarian = test system: OVCAR-8 ovarian
PC-3 prostate = test system: PC-3 prostate
RPMI-8226 leukemia = test system: RPMI-8226 leukemia
RXF 393 renal = test system: RXF 393 renal
SF-268 CNS = test system: SF-268 CNS
SF-295 CNS = test system: SF-295 CNS
SF-539 CNS = test system: SF-539 CNS
SK-MEL-2 melanoma = test system: SK-MEL-2 melanoma
SK-MEL-28 melanoma = test system: SK-MEL-28 melanoma
SK-MEL-5 melanoma = test system: SK-MEL-5 melanoma
SK-OV-3 ovarian = test system: SK-OV-3 ovarian
SN12C renal = test system: SN12C renal
SNB-19 CNS = test system: SNB-19 CNS
SNB-75 CNS = test system: SNB-75 CNS
SR leukemia = test system: SR leukemia
SW-620 colon = test system: SW-620 colon
T-47D breast = test system: T-47D breast
TK-10 renal = test system: TK-10 renal
U251 CNS = test system: U251 CNS
UACC-257 melanoma = test system: UACC-257 melanoma
UACC-62 melanoma = test system: UACC-62 melanoma
UO-31 renal = test system: UO-31 renal

## Cc1cccc2sc(/N=C(\N)C(Br)Br)nc12
786-0 renal
  GI50: 1810 nM
  TGI: 4140 nM
A498 renal
  GI50: 12500 nM
  TGI: 25100 nM
A549 NSCLC
  GI50: 2730 nM
  TGI: 10400 nM
ACHN renal
  GI50: 1070 nM
  TGI: 3860 nM
BT-549 breast
  GI50: 1660 nM
  TGI: 3550 nM
CAKI-1 renal
  GI50: 820 nM
  TGI: 2100 nM
CCRF-CEM leukemia
  GI50: 2670 nM
  TGI: 8120 nM
COLO 205 colon
  GI50: 1250 nM
  TGI: 2930 nM
DU-145 prostate
  GI50: 1940 nM
  TGI: 11100 nM
EKVX NSCLC
  GI50: 3610 nM
  TGI: 14200 nM
HCC-2998 colon
  GI50: 1590 nM
  TGI: 3450 nM
HCT-116 colon
  GI50: 520 nM
  TGI: 1990 nM
HCT-15 colon
  GI50: 1250 nM
  TGI: 6810 nM
HL-60(TB) leukemia
  GI50: 1830 nM
  TGI: 7130 nM
HOP-62 NSCLC
  GI50: 2700 nM
  TGI: 12100 nM
HOP-92 NSCLC
  GI50: 1540 nM
  TGI: 6390 nM
HS 578T breast
  GI50: 2320 nM
  TGI: 9790 nM
HT29 colon
  GI50: 1180 nM
  TGI: 3530 nM
IGROV1 ovarian
  GI50: 1620 nM
  TGI: 3750 nM
K-562 leukemia
  GI50: 1070 nM
  TGI: 12800 nM
KM12 colon
  GI50: 1990 nM
  TGI: 11800 nM
LOX IMVI melanoma
  GI50: 158 nM
  TGI: 345 nM
M14 melanoma
  GI50: 1390 nM
  TGI: 3710 nM
MALME-3M melanoma
  GI50: 1640 nM
  TGI: 3660 nM
MCF7 breast
  GI50: 819 nM
  TGI: 3800 nM
MDA-MB-231 breast
  GI50: 2110 nM
  TGI: 7820 nM
MDA-MB-435
  GI50: 1330 nM
  TGI: 2920 nM
MOLT-4 leukemia
  GI50: 1720 nM
  TGI: 11500 nM
NCI-H226 lung
  GI50: 1820 nM
  TGI: 4130 nM
NCI-H460 lung
  GI50: 654 nM
  TGI: 2590 nM
NCI-H522 lung
  GI50: 1540 nM
  TGI: 3080 nM
NCI/ADR-RES ovarian
  GI50: 1670 nM
  TGI: 7100 nM
OVCAR-3 ovarian
  GI50: 1680 nM
  TGI: 4380 nM
OVCAR-4 ovarian
  GI50: 2000 nM
  TGI: 6500 nM
OVCAR-5 ovarian
  GI50: 2520 nM
  TGI: 7500 nM
OVCAR-8 ovarian
  GI50: 2110 nM
  TGI: 7270 nM
PC-3 prostate
  GI50: 1930 nM
  TGI: 6800 nM
RPMI-8226 leukemia
  GI50: 2120 nM
  TGI: 9510 nM
RXF 393 renal
  GI50: 1320 nM
  TGI: 3320 nM
SF-268 CNS
  GI50: 2240 nM
  TGI: 13100 nM
SF-295 CNS
  GI50: 3650 nM
  TGI: 15500 nM
SF-539 CNS
  GI50: 1420 nM
  TGI: 3340 nM
SK-MEL-2 melanoma
  GI50: 2450 nM
  TGI: 7500 nM
SK-MEL-28 melanoma
  GI50: 1910 nM
  TGI: 5260 nM
SK-MEL-5 melanoma
  GI50: 3030 nM
  TGI: 9420 nM
SK-OV-3 ovarian
  GI50: 4000 nM
  TGI: 16000 nM
SN12C renal
  GI50: 1680 nM
  TGI: 3920 nM
SNB-19 CNS
  GI50: 3230 nM
  TGI: 15100 nM
SNB-75 CNS
  GI50: 2010 nM
  TGI: 10600 nM
SR leukemia
  GI50: 2010 nM
  TGI: 7450 nM
SW-620 colon
  GI50: 659 nM
  TGI: 2410 nM
T-47D breast
  GI50: 2540 nM
  TGI: 12800 nM
TK-10 renal
  GI50: 4300 nM
  TGI: 15500 nM
U251 CNS
  GI50: 1310 nM
  TGI: 3300 nM
UACC-257 melanoma
  GI50: 2900 nM
  TGI: 11500 nM
UACC-62 melanoma
  GI50: 2540 nM
  TGI: 12000 nM
UO-31 renal
  GI50: 1230 nM
  TGI: 7530 nM
